For series [1], the system named is human melanoma IGR39 cell line. Nature of the series: MTT cell viability assay, melanoma IGR39. The series is classed as cell-based. As to conditions: 100 µM, 72 h, MTT. The text has this: (§1) The human malignant melanoma cell line IGR39, human triple-negative breast cancer MDA-MB-231, and human pancreatic carcinoma cell line Panc-1 were obtained from the American Type Culture Collection (ATCC, Manassas, VA, USA). Human foreskin fibroblasts (HF) CRL-4001 were originally obtained from ATCC and kindly provided by Prof. Helder Santos (University of Helsinki, Finland). Primary prostate carcinoma PPC-1 cell line was kindly provided by Prof. Tambet Teesalu (University of Tartu, Estonia). All cell lines were cultured in Dulbecco’s Modified Eagle’s GlutaMAX medium (Gibco (Carlsbad, CA, USA)), supplemented with 10,000 U/mL penicillin, 10 mg/mL streptomycin (Gibco), and 10% fetal bovine serum (Gibco). Cell cultures were grown at 37 °C in a humidified atmosphere containing 5% CO2. They were used until the passage of 20.
(§2) The effect of synthesized compounds on cell viability was studied using 3-(4,5-dimethylthiazol-2-yl)-2,5-diphenyltetrazolium bromide (MTT; Sigma-Aldrich Co., St Louis, MO, USA) assay, as described elsewhere. To summarize, the cells were seeded in triplicates in 96-well Corning plates (IGR39, MDA-MB-231, Panc-1 and PPC1: 4 × 10^3 cells/well; HF: 5 × 10^3 cells/well). The cells were treated with 100 μM of tested compounds after 24 h of incubation. After 72 h, the MTT reagent was added and the formazan crystals that had formed were dissolved in DMSO (Sigma-Aldrich Co., St. Louis, MO, USA). The absorbance was determined with a multidetection microplate reader at 570 and 630 nm.
(§3) The compound serial dilutions ranging from 50 µM to 1.56 µM were introduced to the cells. The Hill equation was used to calculate the EC50 value, or the concentration of a compound that results in a 50% reduction in the metabolic activity of cells.

In series [2] the test system is human foreskin fibroblasts (HF) CRL-4001. Nature of the series: MTT cell viability assay, fibroblasts. The series is classed as cell-based. The note with it: 100 µM, 72 h.
Description: as §1, §2, §3

Series [3] can be described thus: Ferric reducing antioxidant power (FRAP) assay. The note with it: for reducing power activity compared to the control antioxidant: vs protocatechuic acid; for FRAP reducing power (Fe^2+): absorbance at 593 nm. An excerpt: The ferric reducing antioxidant power (FRAP) assay was used to evaluate the antioxidant potential of new compounds 2–17. Antioxidant assays are based on determining reduction power reactions (e.g., reduction Fe^3+ to Fe^2+) or scavenging free radicals (DPPH, ABTS). The FRAP assay is based on the method of single electron transfer (SET), measuring the reduction in the complex of ferric ions (Fe^3+)-ligand to the blue ferrous complex (Fe^2+). This method uses 2,4,6-tripyridyl-s-triazine (TPTZ) as the linking ligand to the iron. The antioxidant activity of the synthesized compounds was compared with that of the well-known antioxidant protocatechuic acid. […] PCA is a building block for pharmaceuticals and is widely used to produce many medicinal products such as veratridine (sodium channel inactivation inhibitor), erlotinib (antineoplastic), Picatin II (treatment of hepatitis B), itopride hydrochloride (gastrointestinal motility drug). PCA can also cause the induction of apoptosis of human leukemia cells. Moreover, the antioxidant activity of PCA is based on the reduction in free radical formation via the up-regulation of genes encoding enzymes with neutralizing activities.
Antioxidant activity was determined as an increase in absorbance at 593 nm, and the results were expressed as of Fe^2+ μmol/L and in relation to antioxidants, and protocatechuic acid, as positive control. The FRAP reagent contained 2.5 mL of 10 mM TPTZ solution in 40 mM HCl as well as 2.5 mL of FeCl3 (20 mM) and 25 mL of acetate buffer (0.3 M, pH = 3.6). Then, 100 μL of analyzed compounds (20 mM) were mixed with 3 mL of the FRAP reagent. The absorbance of the reaction mixture was measured spectrophotometrically at 593 nm using a UV-1280 UV-VIS spectrophotometer (Shimadzu Corporation, Kyoto, Japan). To compose the calibration curve, five concentrations of FeSO4·7H2O (5, 10, 15, 20, 25 μM) were used, and the absorbance was measured as a sample solution.

For series [4], the system named is tested cancer cell lines (IGR39, PPC-1, MDA-MB-231, Panc-1). Nature of the series: MTT cell viability assay, statements on the tested cancer cell lines together. As to conditions: for selectivity against cancer cells: after determination of the dose-effect correlation; for inhibition of cancer cell viability: 100 µM, 72 h, MTT. The series is classed as cell-based, human. As to the method:
as §2, §3
On the technique in general: Formazan colour is commonly taken as a measure of viable cells.

Series [5] has as its system prostate carcinoma PPC-1 cell line. Description: MTT cell viability assay, prostate carcinoma PPC-1. The series is classed as cell-based, human. As to conditions: 100 µM, 72 h, MTT.
Description: as §1, §2, §3

As usually defined, the melting point is the temperature of the solid-liquid transition. Consider `O=C(NN=Cc1ccccc1)C1CC(=O)N(c2ccc(Nc3ccccc3)cc2)C1` (stereo not shown) [Compound 2, N′-benzylidene-5-oxo-1-(4-(phenylamino)phenyl)pyrrolidine-3-carbohydrazide], for which the melting point was 122 to 123 °C. In addition, the “effect on cell viability compared among the cell lines” value in series [1] is listed as “strongest effect on melanoma cells”. In addition, the “effect on fibroblasts compared to cancer cell lines” value in series [2] is reported as “affected fibroblasts more than the tested cancer cell lines”. The “reducing power activity compared to the control antioxidant” value (“reducing power activity” for short) in series [3] is reported as “higher than those of known antioxidants used as the controls”.

For `O=C(NN=Cc1ccc(Br)cc1)C1CC(=O)N(c2ccc(Nc3ccccc3)cc2)C1` (stereo not shown) [Compound 3, N′-(4-bromobenzylidene)-5-oxo-1-(4-(phenylamino)phenyl)pyrrolidine-3-carbohydrazide], the melting point was 198 to 199 °C. Moreover, the “effect on cell viability compared among the cell lines” value in series [1] is on record as “strongest effect on melanoma cells”. Moreover, in series [3], the “FRAP reducing power (Fe^2+)” value is 120.08 µmol/L and the “reducing power activity” value is on record as “higher than those of known antioxidants used as the controls”. Also, the “selectivity against cancer cells” value in series [4] is listed as “nonselective against cancer cells”.

In the case of `O=C(NN=Cc1ccc(Cl)cc1)C1CC(=O)N(c2ccc(Nc3ccccc3)cc2)C1` (stereo not shown) [Compound 4, N′-(4-chlorobenzylidene)-5-oxo-1-(4-(phenylamino)phenyl)pyrrolidine-3-carbohydrazide], the melting point lay within 209 to 210 °C. Moreover, the “effect on cell viability compared among the cell lines” value in series [5] is on record as “most active against the prostate carcinoma cell line”. Also, the “selectivity against cancer cells” value in series [4] is recorded as “nonselective against cancer cells”.

`CN(C)c1ccc(C=NNC(=O)C2CC(=O)N(c3ccc(Nc4ccccc4)cc3)C2)cc1` (stereo not shown) [Compound 7, N′-(4-(dimethylamino)benzylidene)-5-oxo-1-(4-(phenylamino)phenyl)pyrrolidine-3-carbohydrazide] showed a melting point of 218 to 219 °C. Also, in series [2], the “effect on fibroblasts compared to cancer cell lines” value is “affected fibroblasts more than the tested cancer cell lines”. Moreover, the “reducing power activity” value in series [3] is listed as “higher than those of known antioxidants used as the controls”.

The compound `CCN(CC)c1ccc(C=NNC(=O)C2CC(=O)N(c3ccc(Nc4ccccc4)cc3)C2)c(O)c1` (stereo not shown) [Compound 8, N′-(4-(diethylamino)-2-hydroxybenzylidene)-5-oxo-1-(4-(phenylamino)phenyl)pyrrolidine-3-carbohydrazide] yielded a melting point of 239 to 240 °C. Also, the “effect on cell viability compared among the cell lines” value in series [1] is “strongest effect on melanoma cells”. The “effect on fibroblasts compared to cancer cell lines” value in series [2] was “affected fibroblasts more than the tested cancer cell lines”. Besides, in series [3], the “FRAP reducing power (Fe^2+)” value came out at 120.24 µmol/L and the “reducing power activity” value is on record as “higher than those of known antioxidants used as the controls”.

On to `O=C(NN=Cc1ccccc1[N+](=O)[O-])C1CC(=O)N(c2ccc(Nc3ccccc3)cc2)C1` (stereo not shown) [Compound 9, N′-(2-nitrobenzylidene)-5-oxo-1-(4-(phenylamino)phenyl)pyrrolidine-3-carbohydrazide], for which the melting point was in the range of 192 to 193 °C. The “effect on cell viability compared among the cell lines” value in series [1] was “strongest effect on melanoma cells”. Further, in series [3], the “FRAP reducing power (Fe^2+)” value was determined as 118.32 µmol/L and the “reducing power activity” value is given as “higher than those of known antioxidants used as the controls”. Besides, the “inhibition of cancer cell viability” value in series [4] is “less than 20%”.

`CSc1ccc(C=NNC(=O)C2CC(=O)N(c3ccc(Nc4ccccc4)cc3)C2)cc1` (stereo not shown) [Compound 10, N′-(4-(methylthio)benzylidene)-5-oxo-1-(4-(phenylamino)phenyl)pyrrolidine-3-carbohydrazide] returned a melting point of 193 to 194 °C. In addition, in series [1], the “effect on cell viability compared among the cell lines” value is reported as “strongest effect on melanoma cells”. Besides, in series [2], the “effect on fibroblasts compared to cancer cell lines” value is listed as “affected fibroblasts more than the tested cancer cell lines”.

`O=C(NN=Cc1ccc[nH]1)C1CC(=O)N(c2ccc(Nc3ccccc3)cc2)C1` (stereo not shown) [Compound 11, N′-((1H-pyrrol-2-yl)methylene)-5-oxo-1-(4-(phenylamino)phenyl)pyrrolidine-3-carbohydrazide] came in with a melting point of 234 to 235 °C. Also, the “effect on cell viability compared among the cell lines” value in series [5] is on record as “most active against the prostate carcinoma cell line”. The “inhibition of cancer cell viability” value in series [4] is reported as “less than 20%”.

`O=C(NN=Cc1ccc(Br)s1)C1CC(=O)N(c2ccc(Nc3ccccc3)cc2)C1` (stereo not shown) [Compound 12, N′-((5-bromothiophen-2-yl)methylene)-5-oxo-1-(4-(phenylamino)phenyl)pyrrolidine-3-carbohydrazide] registered a melting point of 240 to 241 °C. The “effect on cell viability compared among the cell lines” value in series [5] is on record as “most active against the prostate carcinoma cell line”. In addition, in series [2], the “effect on fibroblasts compared to cancer cell lines” value is “affected fibroblasts more than the tested cancer cell lines”. The “reducing power activity” value in series [3] is listed as “higher than those of known antioxidants used as the controls”.

As for `CC(=NNC(=O)C1CC(=O)N(c2ccc(Nc3ccccc3)cc2)C1)c1ccccc1` (stereo not shown) [Compound 15, 5-Oxo-1-(4-(phenylamino)phenyl)-N′-(1-phenylethylidene)pyrrolidine-3-carbohydrazide], the melting point is 225 to 226 °C. Also, the “effect on cell viability compared among the cell lines” value in series [1] is “strongest effect on melanoma cells”. Also, in series [3], the “FRAP reducing power (Fe^2+)” value was 123.05 µmol/L and the “reducing power activity” value is recorded as “higher than those of known antioxidants used as the controls”. Also, in series [4], the “inhibition of cancer cell viability” value was “less than 20%”.

Take `CC(=NNC(=O)C1CC(=O)N(c2ccc(Nc3ccccc3)cc2)C1)c1ccc(N)cc1` (stereo not shown) [Compound 16, N′-(1-(4-aminophenyl)ethylidene)-5-oxo-1-(4-(phenylamino)phenyl)pyrrolidine-3-carbohydrazide]: the melting point lay in the range of 230 to 231 °C. Also, the “effect on cell viability compared among the cell lines” value in series [1] is recorded as “strongest effect on melanoma cells”. For the same compound, in series [3], the “antioxidant activity (FRAP) relative to protocatechuic acid” value is recorded as 1.2 times, the “FRAP reducing power (Fe^2+)” value worked out at 132.14 µmol/L and the “reducing power activity” value is on record as “higher than those of known antioxidants used as the controls”. Further, in series [4], the “inhibition of cancer cell viability” value is given as “less than 20%”.

Compound `CC(=NNC(=O)C1CC(=O)N(c2ccc(Nc3ccccc3)cc2)C1)c1cccc(N)c1` (stereo not shown) [Compound 17, N′-(1-(3-aminophenyl)ethylidene)-5-oxo-1-(4-(phenylamino)phenyl)pyrrolidine-3-carbohydrazide] gave a melting point of 239 to 240 °C. Besides, the “effect on cell viability compared among the cell lines” value in series [5] was “most active against the prostate carcinoma cell line”. The “effect on fibroblasts compared to cancer cell lines” value in series [2] is on record as “affected fibroblasts more than the tested cancer cell lines”. Further, in series [3], the “FRAP reducing power (Fe^2+)” value worked out at 129.28 µmol/L and the “reducing power activity” value is reported as “higher than those of known antioxidants used as the controls”.

Regarding `O=C(O)c1ccc(O)c(O)c1` [protocatechuic acid, 3,4-dihydroxybenzoic acid, reference compound], in series [3], the “FRAP reducing power (Fe^2+)” value worked out at 109.05 µmol/L.

Source of the values: article PMC10871122, “Synthesis and In Vitro Evaluation as Potential Anticancer and Antioxidant Agents of Diphenylamine-Pyrrolidin-2-one-Hydrazone Derivatives” (International Journal of Molecular Sciences, 2023).
